The source made the active and inactive calls.
What was measured:
BC1 = test: Cytotoxicity against human BC1 cells; type: functional, cell-based
Human alphaherpesvirus 1 = test: Antiviral activity against HSV1; type: functional, organism-based
KB = test: Cytotoxicity against human KB cells; type: functional, cell-based
[1] = tested on: Mycobacterium tuberculosis; test: Antitubercular activity against Mycobacterium tuberculosis H37Ra; type: functional, organism-based
Plasmodium falciparum = test: Antimalarial activity against Plasmodium falciparum K1; type: functional, organism-based
Candida albicans = test: Antifungal activity against Candida albicans; type: functional, organism-based

Measured: Activity

CCCCCCC[C@@H]1OC2=C(C(=O)[C@H](C)O2)[C@H](O)[C@@]1(C)O
inactive: BC1 | Human alphaherpesvirus 1 | KB | [1] | Plasmodium falciparum | Candida albicans

COc1cc(O)c2c(c1)[C@@H]([C@H]1C[C@H](O)[C@H](O)[C@@]3(C=CC[C@H](C)O3)O1)OC2=O
inactive: BC1 | Human alphaherpesvirus 1 | KB | [1] | Plasmodium falciparum | Candida albicans

From ChEMBL document CHEMBL1146512, “Ketene acetal and spiroacetal constituents of the marine fungus Aigialus parvus BCC 5311” (J Nat Prod, 2004)
